Values after ≈ are worked out from the molar mass of the structure shown. Read-outs that look alike come from different tables or passages of the source.
Tests used:
[1] = Test on the solubility of glibenclamide in additive/cyclodextrin solutions; type: physicochemical; details: for solubility at 1 h: 25 °C, aqueous with cosolvent or surfactant or cyclodextrin, thermodynamic from solid; for Solubility: 25° C.
Description: An excess amount of glibenclamide powder was added into an aqueous solution comprising different proportion of additive (e.g., meglumine, sodium carbonate, sodium hydrogen carbonate or sodium hydroxide) and cyclodextrin (hydroxypropyl-β-cyclodextrin) to form a suspension. The suspension was placed in a constant shaking incubator, and shaken for 1 h at 25±1° C. The shaken suspension was filtered with a 0.45 μm hydrophilic filter membrane, with the primary filtrate being disposed and the subsequent filtrate being collected. The subsequent filtrate was diluted to appropriate times with a PBS buffer having a pH of 7.4, the absorbance of the diluted subsequent filtrate was determined at a wavelength of 225 nm, and the solubility of glibenclamide in the diluted subsequent filtrate was calculated according to the absorbance. Corresponding solubility curves were plotted with the solubility of glibenclamide as the vertical axis and the concentration of cyclodextrin and/or meglumine as the horizontal axis.

MCAO rats = assay: Neurobehavioral scoring (Longa) in rat MCAO models; type: in vivo, Sprague-Dawley (SD) rat; details: for Neurobehavioral score (Longa Scoring, 0-4): n=8, glibenclamide 10 μg/kg ip at ischemia 4 h + 200 ng/h sc for 44 hours
Description: 7.2 Experiment Animals: Male Sprague-Dawley (SD) rat, clean grade, weighing at 200˜230 g. The temperature of animal feeding room was maintained at 20˜24° C., the humidity was maintained at 30˜70%; a cycle of lighting on 12 hours/lighting off 12 hours (06:00 AM on, 18:00 PM off) every day was employed. During the experiment, the animals were feed separately, and had free access to water and food.
The test drugs in group GB was formulated as follows: glibenclamide was dissolved in a little DMSO (dimethyl sulfoxide), the resulting solution was diluted to a DMSO concentration of 5 vol % with physiological saline, and the pH of the solution was adjusted to 8˜8.5 with NaOH. By means of the above process, solutions with glibenclamide concentration of 200 μg/ml and 10 μg/ml were respectively formulated.
The test drugs in group H-GB was formulated as follows: Taking the lyophilized product of Example 13, into which was added an appropriate amount of physiological saline and respectively formulated into a solution with a glibenclamide concentration of […].
Rats were rested for about 1 week before the experiment started. On the day of the experiment, the surgical tools were sterilized by autoclaving. The rats were anesthetized by intraperitoneally injecting chloral hydrate (330 mg/kg). The common carotid artery and external carotid artery of the rats were separated, and a sterilized MCAO monofilament was used to insert into the internal carotid artery through the opening of the external carotid artery to a depth of about 18 mm, until the head of the monofilament reached the starting part of the middle cerebral artery, the opening of the external carotid artery was ligatured to fix the monofilament. […] The blood flow in the brain was monitored with a laser Doppler (Model moorVMS-LDF2, Manufacturer moor) respectively pre-operation, post-operation and immediately after reperfusion, and the molding in which the ratio of the postoperative blood flow to the preoperative blood flow was less than 30% was regarded as a qualified molding. […]

[2] = background statement; cited from earlier work

With `COc1ccc(Cl)cc1C(=O)NCCc1ccc(S(=O)(=O)NC(=O)NC2CCCCC2)cc1` [glibenclamide, 5-chloro-N-(4-[N-(cyclohexylcarbamoyl)aminosulfonyl]phenethyl)-2-methoxybenzamide] the solubility at 1 h ([1]; sodium carbonate 0.1% (w/v), 2-hydroxypropyl-β-cyclodextrin 10% (w/v), read-out: Solubility) was 6510 µg/mL (≈ 13200 µM), the solubility at 1 h ([1]; sodium carbonate 0.1% (w/v), 2-hydroxypropyl-β-cyclodextrin 20% (w/v), read-out: Solubility) was 10600 µg/mL (≈ 21500 µM) and the solubility at 1 h ([1]; sodium carbonate 0.1% (w/v), 2-hydroxypropyl-β-cyclodextrin 30% (w/v), read-out: Solubility) was 10800 µg/mL (≈ 21800 µM). For the same molecule, the solubility at 1 h ([1]; sodium carbonate 0.1% (w/v), 2-hydroxypropyl-β-cyclodextrin 40% (w/v), read-out: Solubility) was 10900 µg/mL (≈ 22100 µM), the solubility at 1 h ([1]; sodium carbonate 0.1% (w/v), cyclodextrin from 5% (w/v) to 20% (w/v), read-out: water solubility of glibenclamide) was 2350 to 10600 µg/mL (≈ 4760 to 21500 µM) and the solubility at 1 h ([1]; sodium carbonate 0.1% (w/v), cyclodextrin from 20% (w/v) to 40% (w/v), read-out: solubility of glibenclamide) was about 10600 µg/mL (≈ 21500 µM). For the same molecule, the solubility at 1 h ([1]; sodium hydrogen carbonate 4% (w/v), 2-hydroxypropyl-β-cyclodextrin 0.5% (w/v), read-out: Solubility) was 320 µg/mL (≈ 648 µM), the solubility at 1 h ([1]; sodium hydrogen carbonate 4% (w/v), 2-hydroxypropyl-β-cyclodextrin 1.25% (w/v), read-out: Solubility) was 590 µg/mL (≈ 1190 µM) and the solubility at 1 h ([1]; sodium hydrogen carbonate 4% (w/v), 2-hydroxypropyl-β-cyclodextrin 5% (w/v), read-out: Solubility) was 1260 µg/mL (≈ 2550 µM). The solubility at 1 h ([1]; sodium hydrogen carbonate 4% (w/v), 2-hydroxypropyl-β-cyclodextrin 10% (w/v), read-out: Solubility) was 1690 µg/mL (≈ 3420 µM), the solubility at 1 h ([1]; sodium hydrogen carbonate 4% (w/v), 2-hydroxypropyl-β-cyclodextrin 20% (w/v), read-out: Solubility) was 1730 µg/mL (≈ 3500 µM) and the solubility at 1 h ([1]; sodium hydrogen carbonate 4% (w/v), 2-hydroxypropyl-β-cyclodextrin 30% (w/v), read-out: Solubility) was 1780 µg/mL (≈ 3600 µM). For the same molecule, the solubility at 1 h ([1]; sodium hydrogen carbonate 4% (w/v), 2-hydroxypropyl-β-cyclodextrin 40% (w/v), read-out: Solubility) was 1750 µg/mL (≈ 3540 µM), the solubility at 1 h ([1]; sodium hydrogen carbonate 4% (w/v), cyclodextrin from 0.5% (w/v) to 10% (w/v), read-out: water solubility of glibenclamide) was 320 to 1690 µg/mL (≈ 648 to 3420 µM) and the solubility at 1 h ([1]; sodium hydrogen carbonate 4% (w/v), cyclodextrin from 10% (w/v) to 40% (w/v), read-out: solubility of glibenclamide) was about 1690 µg/mL (≈ 3420 µM). For the same molecule, the solubility at 1 h ([1]; sodium hydroxide 0.01% (w/v), 2-hydroxypropyl-β-cyclodextrin 1.25% (w/v), read-out: Solubility) was 370 µg/mL (≈ 749 µM), the solubility at 1 h ([1]; sodium hydroxide 0.01% (w/v), 2-hydroxypropyl-β-cyclodextrin 2.5% (w/v), read-out: Solubility) was 640 µg/mL (≈ 1300 µM) and the solubility at 1 h ([1]; sodium hydroxide 0.01% (w/v), 2-hydroxypropyl-β-cyclodextrin 5% (w/v), read-out: Solubility) was 810 µg/mL (≈ 1640 µM). The solubility at 1 h ([1]; sodium hydroxide 0.01% (w/v), 2-hydroxypropyl-β-cyclodextrin 10% (w/v), read-out: Solubility) was 1260 µg/mL (≈ 2550 µM), the solubility at 1 h ([1]; sodium hydroxide 0.01% (w/v), 2-hydroxypropyl-β-cyclodextrin 30% (w/v), read-out: Solubility) was 1240 µg/mL (≈ 2510 µM) and the solubility at 1 h ([1]; sodium hydroxide 0.01% (w/v), 2-hydroxypropyl-β-cyclodextrin 40% (w/v), read-out: Solubility) was 1350 µg/mL (≈ 2730 µM). The solubility at 1 h ([1]; sodium hydroxide 0.01% (w/v), cyclodextrin from 0.5% (w/v) to 10% (w/v), read-out: water solubility of glibenclamide) was 140 to 1260 µg/mL (≈ 283 to 2550 µM), the solubility at 1 h ([1]; sodium hydroxide 0.01% (w/v), cyclodextrin from 10% (w/v) to 40% (w/v), read-out: solubility of glibenclamide) was about 1260 µg/mL (≈ 2550 µM) and the Solubility ([1]; meglumine 0% (w/v), 2-hydroxypropyl-β-cyclodextrin 30% (w/v)) was 86 µg/mL (≈ 174 µM). The Solubility ([1]; meglumine 0% (w/v), 2-hydroxypropyl-β-cyclodextrin 40% (w/v)) was 120 µg/mL (≈ 243 µM), the Solubility ([1]; sodium hydrogen carbonate 4% (w/v), 2-hydroxypropyl-β-cyclodextrin 2.5% (w/v)) was 840 µg/mL (≈ 1700 µM) and the Solubility ([1]; sodium hydroxide 0.01% (w/v), 2-hydroxypropyl-β-cyclodextrin 20% (w/v)) was 1300 µg/mL (≈ 2630 µM). For the same molecule, the “neurobehavioral scores compared with the control (in words)” value (MCAO rats; at 24 h, 48 h) was “declines”, the “Neurobehavioral score (Longa Scoring, 0-4)” value (MCAO rats; scored at ischemia 24 h) was 1.75 ± 0.25 and the “Neurobehavioral score (Longa Scoring, 0-4)” value (MCAO rats; scored at ischemia 48 h) was 2.00 ± 0.19. The water solubility [2] was “less than 5 μg/ml”.
